Structures can show the parent of a compound that is named as a salt.

Assay [1] addresses rat adipose tissue homogenate SSAO/VAP-1 (Rattus norvegicus (Rat), UniProt O08590). Briefly: Determination of inhibitory activity of rat adipose tissue homogenate SSAO/VAP-1. It counts as biochemical, Sprague Dawley rats. The following applies: rat abdominal adipose tissue homogenate, pargyline pretreated, 37° C. How it is done: 2. Determination of Inhibitory Activity of Rat Adipose Tissue Homogenate SSAO/VAP-1
Test purpose: The following methods can be used to determine the inhibitory activity of the compounds of the invention for rat adipose tissue homogenate SSAO/VAP-1.
The abdominal fat removed from Sprague Dawley rats was a tissue rich in SSAO/VAP-1. 5 mL Of HES buffer per gram of rat abdominal adipose tissue (20 mM Sodium N-piperazine-N-ethanesulfonate, 1 mm EDTA, 250 mM sucrose, 1×PMSF and 100 mM (3-glycerol phosphate disodium salt hydrate, pH 7.4) was added for homogenizing. The fat tissue was homogenized for 3 min by using Bertin precellys 24 multi-functional sample homogenizer of Bertin technologies, and the fat tissue homogenate was centrifuged for 10 min at 4° C. and 20000 g, and the middle transparent supernatant was taken. The supernatant was incubated with 0.5 mm Pargyline hydrochloride dissolved in HES buffer at 37° C. for 30 min. After 30 min incubation, 25 μl of fat tissue supernatant was added to the standard 96 well plate. The test compound was dissolved in DMSO and diluted to 6 concentrations. 25 μL Of the test compounds with different concentrations was added to each well containing the supernatant of fat tissue and incubated at 37° C. for 30 min. After incubation, 50 μL of the reaction mixture containing 80 μM benzylamine hydrochloride (containing 100 μM Amplex® red and 0.2 U/mL HRP, Amplex® Red Hydrogen peroxideperoxidase assay kit) was added to the corresponding wells and incubated at 37° C. for 30 min. After 30 min, the relative fluorescence unit (RFU) was read by using PHERAstar FSX enzyme marker of BMG LABTECH at 540 nm excitation and 580 nm emission. The curve was drawn by using the graph pad prism 5 software, and the IC50 value was calculated. The results were shown in table 2, wherein the compound listed in table 2 is the compound in the preparation examples with the same compound number: Table 2: inhibitory activity of the compound of examples of the invention for SSAO/VAP-1 of fat tissue homogenate

The target in assay [2] is Human recombinant SSAO/VAP-1 (Homo sapiens (Human), UniProt Q16853). Kind of assay: Determination of inhibitory activity of human recombinant SSAO/VAP-1 (Amplex Red, benzylamine). It counts as biochemical. The following applies: human recombinant SSAO/VAP-1, 30 min preincubation at room temperature; read-out: SSAO/VAP-1(Human recombinant protein) IC50/nM. How it is done:
1. Determination of Inhibitory Activity of Human Recombinant SSAO/VAP-1
Test purpose: The following methods can be used to determine the inhibitory activity of the compounds described in the examples of the invention for human recombinant SSAO/VAP-1.
Human recombinant SSAO/VAP-1 (VAP-1, human) purchased from Sigma, Cat. No. SRP6241;
The test compound was dissolved in DMSO and diluted to 10 concentrations in 4-fold serial dilution. In 384 well plates, 25 μL of human recombinant SSAO/VAP-1 (1.6 μg/ml) was added to each well. 100 nL of test compounds with different concentrations were added to each well containing human recombinant SSAO/VAP-1 and incubated at room temperature for 30 min. After 30 min incubation, 25 μl of Amplex® red monoamine oxidase assay kit (containing a reaction mixture of 200 μm Amplex Red reagent, 1 U/ml HRP and 1 mm benzylamine hydrochloride) was added to the corresponding well, and incubated at room temperature and dark for 60 min. After 60 min, the relative fluorescence unit (RFU) was read by using PerkinElmer's Envision at 530-560 nm excitation and 590 nm emission. The curve was drawn by using the graph pad prism 5 software, and the IC50 value was calculated. The results were shown in table 1, wherein the compound listed in table 1 is the compound in the preparation examples with the same compound number: […]

Chain of Human recombinant SSAO/VAP-1 (Q16853 whole entry): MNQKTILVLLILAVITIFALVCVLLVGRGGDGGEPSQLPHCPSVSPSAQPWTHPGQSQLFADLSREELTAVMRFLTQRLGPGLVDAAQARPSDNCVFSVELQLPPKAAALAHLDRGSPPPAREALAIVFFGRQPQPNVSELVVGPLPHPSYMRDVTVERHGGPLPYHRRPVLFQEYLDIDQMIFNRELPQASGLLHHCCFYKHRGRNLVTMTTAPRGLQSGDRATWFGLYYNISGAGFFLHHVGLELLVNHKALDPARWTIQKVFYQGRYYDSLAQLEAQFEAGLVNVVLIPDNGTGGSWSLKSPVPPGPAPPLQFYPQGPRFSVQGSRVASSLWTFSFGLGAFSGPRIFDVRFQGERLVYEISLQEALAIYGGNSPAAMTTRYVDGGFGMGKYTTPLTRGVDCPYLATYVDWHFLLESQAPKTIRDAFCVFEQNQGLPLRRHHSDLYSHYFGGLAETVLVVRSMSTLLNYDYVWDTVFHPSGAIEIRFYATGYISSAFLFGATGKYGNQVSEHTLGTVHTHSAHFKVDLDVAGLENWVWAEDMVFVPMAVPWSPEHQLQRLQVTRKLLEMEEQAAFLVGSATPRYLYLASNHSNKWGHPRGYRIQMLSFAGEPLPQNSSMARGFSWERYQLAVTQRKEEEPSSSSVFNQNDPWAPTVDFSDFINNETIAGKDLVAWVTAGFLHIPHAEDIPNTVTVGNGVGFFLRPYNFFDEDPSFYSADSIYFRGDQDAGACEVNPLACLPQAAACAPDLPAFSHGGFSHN
Chain of rat adipose tissue homogenate SSAO/VAP-1 (O08590 whole entry): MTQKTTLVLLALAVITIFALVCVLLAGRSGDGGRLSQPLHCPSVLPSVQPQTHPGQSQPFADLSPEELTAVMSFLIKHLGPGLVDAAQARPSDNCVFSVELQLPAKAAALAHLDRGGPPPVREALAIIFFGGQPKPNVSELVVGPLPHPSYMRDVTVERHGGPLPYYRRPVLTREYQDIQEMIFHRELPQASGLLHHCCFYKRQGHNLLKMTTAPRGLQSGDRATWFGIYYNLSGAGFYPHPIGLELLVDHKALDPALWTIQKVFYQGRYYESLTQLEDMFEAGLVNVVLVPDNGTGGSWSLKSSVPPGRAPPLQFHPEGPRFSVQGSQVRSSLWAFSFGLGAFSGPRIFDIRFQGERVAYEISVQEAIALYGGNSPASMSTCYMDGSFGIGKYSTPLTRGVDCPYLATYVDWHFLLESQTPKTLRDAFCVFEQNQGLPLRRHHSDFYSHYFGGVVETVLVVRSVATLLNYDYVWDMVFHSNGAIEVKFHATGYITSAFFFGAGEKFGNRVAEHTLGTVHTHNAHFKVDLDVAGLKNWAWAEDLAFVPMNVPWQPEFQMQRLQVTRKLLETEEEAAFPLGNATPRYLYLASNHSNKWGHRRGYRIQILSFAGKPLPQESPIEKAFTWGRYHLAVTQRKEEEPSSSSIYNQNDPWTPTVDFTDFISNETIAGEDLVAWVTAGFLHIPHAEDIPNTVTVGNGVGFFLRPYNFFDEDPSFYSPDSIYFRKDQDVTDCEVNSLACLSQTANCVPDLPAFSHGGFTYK

On to `NC/C(=C\F)COc1ccc2c(c1)NC(=O)CC2` [Compound 1, 7-[(E)-2-(aminomethyl)-3-fluoro-allyloxy]-3,4-dihydro-1H-quinolin-2-one hydrochloride], for which the IC50 in assay [1] amounted to 10.1 nM.

On to `NC/C(=C/F)COc1ccc2c(c1)NC(=O)CC2` [Compound 2, 7-[(Z)-2-(aminomethyl)-3-fluoro-allyloxy]-3,4-dihydro-1H-quinolin-2-one hydrochloride], for which the IC50 in assay [1] stood at 11.6 nM; in assay [2], 1.01 nM.

As to `NC/C(=C\F)COc1ccc2c(c1)CCN(c1ccccc1)C2=O` [Compound 5, 6-[(E)-2-(aminomethyl)-3-fluoro-allyloxy]-2-phenyl-3,4-dihydroisoquinolin-1-one hydrochloride], the IC50 in assay [1] worked out at 4.87 nM; in assay [2], 0.37 nM.

`NC/C(=C/F)COc1ccc2c(c1)CCN(c1ccccc1)C2=O` [Compound 6, 6-[(Z)-2-(aminomethyl)-3-fluoro-allyloxy]-2-phenyl-3,4-dihydroisoquinolin-1-one hydrochloride]: the IC50 in assay [2] was 0.04 nM.

In the case of `NC/C(=C\F)COc1ccc2c(c1)CCN(c1ncccn1)C2=O` [Compound 7, 6-[(E)-2-(aminomethyl)-3-fluoro-allyloxy]-2-(pyrimidin-2-yl)-3,4-dihydroisoquinolin-1-one hydrochloride], the IC50 in assay [1] is 8.98 nM; in assay [2], 0.09 nM.

Regarding `CN1CCc2cc(OC/C(=C/F)CN)ccc2C1=O` [Compound 8, 6-[(E)-2-(aminomethyl)-3-fluoro-allyloxy]-2-methyl-3,4-dihydroisoquinolin-1-one hydrochloride], the figures for the IC50 in assay [1] and in assay [2] were 8.84 nM and 0.32 nM, respectively.

As for `CN1CCc2cc(OC/C(=C\F)CN)ccc2C1=O` [Compound 9, 6-[(Z)-2-(aminomethyl)-3-fluoro-allyloxy]-2-methyl-3,4-dihydroisoquinolin-1-one hydrochloride], the IC50 came out at 8.05 nM in assay [1] and 0.61 nM in assay [2].

As for `NC/C(=C\F)COc1ccc2c(c1)CCN(CC1CCOCC1)C2=O` [Compound 10, 6-[(E)-2-(aminomethyl)-3-fluoro-allyloxy]-2-(tetrahydropyranyl-4-methylene)-3,4-dihydroisoquinolin-1-one hydrochloride], in assay [1], the IC50 was 9.54 nM.

In the case of `NC/C(=C/F)COc1ccc2c(c1)CCN(CC1CCOCC1)C2=O` [Compound 11, 6-[(Z)-2-(aminomethyl)-3-fluoro-allyloxy]-2-(tetrahydropyranyl-4-methylene)-3,4-dihydroisoquinolin-1-one hydrochloride], the values for the IC50 in assay [1] and in assay [2] were 11.7 nM and 0.82 nM, respectively.

On to `CCOC(=O)CN1CCc2cc(OC/C(=C\F)CN)ccc2C1=O` [Compound 13, ethyl 2-[6-[(Z)-2-(aminomethyl)-3-fluoro-allyloxy]-1-oxo-3,4-dihydroisoquinolin-2-yl]acetate hydrochloride], for which the IC50 in assay [1] came to 8.03 nM; in assay [2], 0.11 nM.

For `NC/C(=C/F)COc1ccc2c(c1)CCN(CCOCc1ccccc1)C2=O` [Compound 21, 6-[(Z)-2-(aminomethyl)-3-fluoro-allyloxy]-2-(2-benzyloxyethyl)-3,4-dihydro isoquinolin-1-one hydrochloride], in assay [2], the IC50 was 0.91 nM.

For the compound `NC/C(=C\F)COc1ccc2c(c1)CCN(c1ccccn1)C2=O` [Compound 28, 6-[(E)-2-(aminomethyl)-3-fluoro-allyloxy]-2-(2-pyridyl)-3,4-dihydroisoquinolin-1-one hydrochloride], in assay [2], the IC50 came out at 1.53 nM.

`NC/C(=C\F)COc1ccc2c(c1)CCNS2(=O)=O` [Compound 32, (E)-2-[(1,1-dioxo-3,4-dihydro-2H-benzo[e][1,2]thiazin-6-yl)oxymethyl]-3-fluoro-prop-2-enyl-1-amine hydrochloride]: the IC50 in assay [1] turned out to be 6.22 nM.

On to `NC/C(=C\F)COc1ccc2c(c1)CCN(c1ccccc1F)C2=O` [Compound 34, 6-[(E)-2-(aminomethyl)-3-fluoro-allyloxy]-2-(2-fluorophenyl)-3,4-dihydroisoquinolin-1-one hydrochloride], for which, in assay [2], the IC50 was found to be 1.16 nM.

For `NC/C(=C/F)COc1ccc2c(c1)CCN(c1ccccc1F)C2=O` [Compound 35, 6-[(Z)-2-(aminomethyl)-3-fluoro-allyloxy]-2-(2-fluorophenyl)-3,4-dihydroisoquinolin-1-one hydrochloride], in assay [2], the IC50 amounted to 0.71 nM.

For the compound `N#Cc1ccc(N2CCc3cc(OC/C(=C/F)CN)ccc3C2=O)cc1` [Compound 38, 4-[6-[(E)-2-(aminomethyl)-3-fluoro-allyloxy]-1-oxo-3,4-dihydroisoquinolin-2-yl]benzonitrile hydrochloride], the IC50 in assay [2] was 0.68 nM.

On to `N#Cc1ccc(N2CCc3cc(OC/C(=C\F)CN)ccc3C2=O)cc1` [Compound 39, 4-[6-[(Z)-2-(aminomethyl)-3-fluoro-allyloxy]-1-oxo-3,4-dihydroisoquinolin-2-yl]benzonitrile hydrochloride], for which the IC50 in assay [2] was found to be 0.53 nM.

As for `NC/C(=C\F)COc1ccc2c(c1)CCN(c1nccs1)C2=O` [Compound 40, 6-[(E)-2-(aminomethyl)-3-fluoro-allyloxy]-2-thiazol-2-yl-3,4-dihydroisoquinolin-1-one hydrochloride], the IC50 in assay [2] was determined as 1 nM.

In the case of `NC/C(=C/F)COc1ccc2c(c1)CCN(c1nccs1)C2=O` [Compound 41, 6-[(Z)-2-(aminomethyl)-3-fluoro-allyloxy]-2-thiazol-2-yl-3,4-dihydroisoquinolin-1-one hydrochloride], in assay [2], the IC50 came to 0.63 nM.

Take `NC/C(=C\F)COc1ccc2c(c1)CCN(Cc1ccon1)C2=O` [Compound 42, 6-[(E)-2-(aminomethyl)-3-fluoro-allyloxy]-2-(isoxazol-3-yl-methyl)-3,4-dihydroisoquinolin-1-one hydrochloride]: in assay [2], the IC50 came out at 1.13 nM.

On to `NC/C(=C/F)COc1ccc2c(c1)CCN(Cc1ccon1)C2=O` [Compound 43, 6-[(Z)-2-(aminomethyl)-3-fluoro-allyloxy]-2-(isoxazol-3-yl-methyl)-3,4-dihydroisoquinolin-1-one hydrochloride], for which, in assay [2], the IC50 came out at 0.71 nM.

For `NC/C(=C/F)COc1ccc2c(c1)CCN(c1ccccc1)C2` [Compound 53, (Z)-3-fluoro-2-[(2-phenyl-3,4-dihydro-1H-isoquinolin-6-yl)oxymethyl]prop-2-enyl-1-amine hydrochloride], the IC50 in assay [2] is 1.04 nM.

Consider `COc1ncc(N2CCc3cc(OC/C(=C\F)CN)ccc3C2=O)cn1` [Compound 55, 6-[(Z)-2-[(aminomethyl)-3-fluoro-allyloxy]-2-(2-methoxypyrimidin-5-yl)-3,4-dihydroisoquinolin-1-one hydrochloride], for which the IC50 in assay [2] was 0.82 nM.

Regarding `COC(=O)CCN1CCc2cc(OC/C(=C/F)CN)ccc2C1=O` [Compound 56, methyl 3-[6-[(E)-2-(aminomethyl)-3-fluoro-allyloxy]-1-oxo-3,4-dihydroisoquinolin-2-yl]propionate hydrochloride], the IC50 in assay [2] was found to be 1.91 nM.

Turning to `COC(=O)CCN1CCc2cc(OC/C(=C\F)CN)ccc2C1=O` [Compound 57, methyl 3-[6-[(Z)-2-(aminomethyl)-3-fluoro-allyloxy]-1-oxo-3,4-dihydroisoquinolin-2-yl]propionate hydrochloride], in assay [2], the IC50 stood at 1.27 nM.

Consider `COC(=O)CN1CCc2cc(OC/C(=C/F)CN)ccc2C1=O` [Compound 58, methyl 2-[6-[(E)-2-(aminomethyl)-3-fluoro-allyloxy]-1-oxo-3,4-dihydroisoquinolin-2-yl]acetate hydrochloride], for which the IC50 in assay [2] came out at 1.17 nM.

For the compound `COC(=O)CN1CCc2cc(OC/C(=C\F)CN)ccc2C1=O` [Compound 59, methyl 2-[6-[(Z)-2-(aminomethyl)-3-fluoro-allyloxy]-1-oxo-3,4-dihydroisoquinolin-2-yl]acetate hydrochloride], the IC50 in assay [2] is 1.3 nM.

The values above are taken from patent US11396495B2, “Amine compound for inhibiting SSAO/VAP-1 and use thereof” (SUNSHINE LAKE PHARMA CO., LTD., priority 2017, dated 2022).
